# Reference: US11945790B2 (ImmunoMolecular Therapeutics, Inc., priority 2020, dated 2024)
# Target: HLA-DQ2 (Homo sapiens, UniProt P01909+P01920)
# Experiment: Inhibition of IL-2 secretion by TCR transductants stimulated by α-gliadin peptides presented by HLA-DQ2 expressing K562 cells (ELISA)
# Format: cell-based
# Conditions: tested as trans racemate unless otherwise noted, lines naming several Examples = stereoisomer mixture of those Examples; for % Inh at 200 uM: inhibition of IL-2 secretion at 200 uM
# Method: Three commercially available analogues of the DQ2 binding molecules of the invention were tested for their ability to inhibit stimulation of T cell receptor (TCR) transductants in the presence of HLA-DQ2 expressing cells presenting known α-gliadin epitopes.
# Using a previously published in vitro assay (Ostrov D, et al. Methyldopa blocks MHC class II binding to disease specific antigens in autoimmune diabetes. J Clin Invest. 2018:128 (5)) the ability of these DQ2 binding analogues to inhibit interleukin-2 (IL-2) secretion by TCR transductants stimulated by α-gliadin peptides presented by HLA-DQ2 was determined. Individual TCR transductants (recognizing a I-gliadin or a II-gliadin) were cultured with a gliadin peptide plus the small molecule analogues in the presence of HLA-DQ2 expressing K562 cells serving as antigen presenting cells. TCR transductants cultured with no gliadin peptide served as the negative control, and incubation with an anti-CD3 antibody (eBioscience; clone 2C11) served as a positive control for the TCR transductant. Secreted IL-2 in the culture supernatant was measured using a highly sensitive enzyme-linked immunosorbent assay (ELISA). […] Assays for effects on cell viability and for specificity, assayed in the absence of gliadin peptide or in the presence of a stimulating anti-CD3 antibody, were performed. Unless otherwise noted, the stereochemistry shown below represents the relative configuration. Further, unless otherwise noted, compounds were tested as the trans racemate.
# Chain of HLA-DQ2 (P01920 33-261 limits assumed, other chains not shown): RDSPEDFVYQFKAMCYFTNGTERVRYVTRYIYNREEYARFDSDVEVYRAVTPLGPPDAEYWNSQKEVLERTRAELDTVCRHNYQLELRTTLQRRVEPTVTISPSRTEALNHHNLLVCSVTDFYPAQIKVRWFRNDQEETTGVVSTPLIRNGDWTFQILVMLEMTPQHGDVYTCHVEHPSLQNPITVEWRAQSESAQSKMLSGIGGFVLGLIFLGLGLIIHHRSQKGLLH
Compound,% Inh at 200 uM,"EC50 (inhibition of IL-2 secretion, dose-response) [µM]"
"O=C(CSc1ccccc1)N1CCN(C(=O)[C@@H]2C[C@H]2c2ccccc2)CC1 (relative stereo) [Example 49, 1-(4-(Trans-2-phenylcyclopropane-1-carbonyl)piperazin-1-yl)-2-(phenylthio) ethan-1-one]",C (C=25-49%),–
COc1ccccc1[C@H]1C[C@@H]1C(=O)N1CCN(C(=O)CSC2CCCC2)CC1 [Example 34],B (B=50-74%),–
O=C(CSc1cccc(O)c1)N1CCN(C(=O)[C@@H]2C[C@H]2c2ccccc2)CC1 [Example 87],C (C=25-49%),–
"Cc1cc(Cl)ccc1SCC(=O)N1CCN(C(=O)[C@@H]2C[C@H]2c2ccccc2)CC1 (relative stereo) [Example 72, 2-((4-Chloro-2-methylphenyl)thio)-1-(4-(trans-2-phenylcyclo-propanecarbonyl)piperazin-1-yl) ethanone]",A (A=≥75%),–
O=C(c1ccccc1C(F)(F)F)N1CCN(C(=O)C2CC2c2ccc3c(c2)OCO3)CC1 (stereo not shown) [Example 21],C (C=25-49%),–
O=C(CCS(=O)(=O)c1ccccc1)N1CCN(C(=O)C2CC2c2ccc3c(c2)OCO3)CC1 (stereo not shown) [Example 16],A (A=≥75%),–
O=C(CSc1ccc(F)cc1)N1CCN(C(=O)C2CC2c2ccc3c(c2)OCO3)CC1 (stereo not shown) [Example 5],B (B=50-74%),–
Cc1cccc(SCC(=O)N2CCN(C(=O)[C@@H]3C[C@H]3c3ccccc3)CC2)c1 [Example 51],A (A=≥75%),–
COC(=O)c1cccc(OCC(=O)N2CCN(C(=O)[C@@H]3C[C@H]3c3ccccc3)CC2)c1 (relative stereo) [Example 109],A (A=≥75%),50 to 100
CN(C)c1cccc(C(=O)N2CCN(C(=O)C3CC3c3ccc4c(c3)OCO4)CC2)c1 (stereo not shown) [Example 20],B (B=50-74%),–
O=CNc1ccccc1OCC(=O)N1CCN(C(=O)[C@@H]2C[C@H]2c2ccccc2)CC1 [Example 93],B (B=50-74%),–
"O=C(COc1ccccc1)N1CCN(C(=O)[C@@H]2C[C@H]2c2ccccc2)CC1 (relative stereo) [Example 48, 2-Phenoxy-1-(4-(trans-2-phenylcyclopropanecarbonyl)piperazin-1-yl) ethanone]",B (B=50-74%),–
O=C(c1cc(Cl)ccc1Cl)N1CCN(C(=O)C2CC2c2ccc3c(c2)OCO3)CC1 (stereo not shown) [Example 18],A (A=≥75%),–
COc1ccc(SCC(=O)N2CCN(C(=O)[C@@H]3C[C@H]3c3ccccc3)CC2)cc1 [Example 75],B (B=50-74%),–
O=C(C1CCCC1)N1CCN(C(=O)C2CC2c2ccc3c(c2)OCO3)CC1 (stereo not shown) [Example 25],A (A=≥75%),–
Cc1ccc(SCC(=O)N2CCN(C(=O)[C@@H]3C[C@H]3c3ccccc3)CC2)c(C)c1 [Example 70],A (A=≥75%),–
COc1ccc([C@H]2C[C@@H]2C(=O)N2CCN(C(=O)CSC3CCCC3)CC2)cc1 [Example 28],B (B=50-74%),–
O=CNc1ccc(SCC(=O)N2CCN(C(=O)[C@@H]3C[C@H]3c3ccccc3)CC2)cc1 [Example 74],B (B=50-74%),–

Compound,% Inh at 200 uM,"EC50 (inhibition of IL-2 secretion, dose-response) [µM]"
"CCCCOCC(=O)N1CCN(C(=O)[C@@H]2C[C@H]2c2ccccc2)CC1 (relative stereo) [Example 46, 2-Butoxy-1-(4-(trans-2-phenylcyclopropanecarbonyl)piperazin-1-yl) ethanone]",B (B=50-74%),–
O=C(CSc1ccc(O)cc1)N1CCN(C(=O)[C@@H]2C[C@H]2c2ccccc2)CC1 [Example 76],C (C=25-49%),–
COC(=O)c1ccccc1OCC(=O)N1CCN(C(=O)[C@@H]2C[C@H]2c2ccccc2)CC1 [Example 100],C (C=25-49%),–
O=C(CSC1CCCC1)N1CCN(C(=O)C2CC2c2cccs2)CC1 (stereo not shown) [Example 14],A (A=≥75%),–
"O=C(CSc1ccc(Cl)cc1)N1CCN(C(=O)[C@@H]2C[C@H]2c2ccccc2)CC1 (relative stereo) [Example 57, 2-((4-Chlorophenyl)thio)-1-(4-(trans-2-phenylcyclopropane-carbonyl)piperazin-1-yl) ethanone]",B (B=50-74%),–
Cc1noc(C)c1CCC(=O)N1CCN(C(=O)C2CC2c2ccc3c(c2)OCO3)CC1 (stereo not shown) [Example 15],C (C=25-49%),–
O=C(CN(C(=O)OCc1ccccc1)C1CCCC1)N1CCN(C(=O)[C@@H]2CC2c2ccccc2)CC1 (stereo partly shown) [Example 83],A (A=≥75%),–
COc1cccc(SCC(=O)N2CCN(C(=O)[C@@H]3C[C@H]3c3ccccc3)CC2)c1 [Example 62],C (C=25-49%),–
"Cc1ccc(SCC(=O)N2CCN(C(=O)[C@@H]3C[C@H]3c3ccccc3)CC2)cc1C (relative stereo) [Example 56, 2-((3,4-Dimethylphenyl)thio)-1-(4-(trans-2-phenylcyclopropanecarbonyl)piperazin-1-yl) ethanone]",B (B=50-74%),–
NC(=O)c1ccccc1SCC(=O)N1CCN(C(=O)[C@@H]2C[C@H]2c2ccccc2)CC1 [Example 73],C (C=25-49%),–
CC1(c2ccccc2O)CC1C(=O)N1CCN(C(=O)CSC2CCCC2)CC1 (stereo not shown) [Example 67],C (C=25-49%),–
O=C(c1ccco1)N1CCN(C(=O)C2CC2c2ccc3c(c2)OCO3)CC1 (stereo not shown) [Example 7],B (B=50-74%),–
CCOc1ccccc1C(=O)N1CCN(C(=O)C2CC2c2ccc3c(c2)OCO3)CC1 (stereo not shown) [Example 17],C (C=25-49%),–
O=C(Cc1c(F)cccc1Cl)N1CCN(C(=O)C2CC2c2ccc3c(c2)OCO3)CC1 (stereo not shown) [Example 23],C (C=25-49%),–
CS(=O)(=O)N1CCC(C(=O)N2CCN(C(=O)C3CC3c3ccc4c(c3)OCO4)CC2)CC1 (stereo not shown) [Example 26],C (C=25-49%),–
O=C(CSc1ccccc1O)N1CCN(C(=O)[C@@H]2C[C@H]2c2ccccc2)CC1 [Example 88],B (B=50-74%),–
O=CNc1ccccc1SCC(=O)N1CCN(C(=O)[C@@H]2C[C@H]2c2ccccc2)CC1 [Example 86],C (C=25-49%),–
NC(=O)c1cccc(OCC(=O)N2CCN(C(=O)[C@@H]3C[C@H]3c3ccccc3)CC2)c1 [Example 91],B (B=50-74%),–

# Further lines, results first:
% Inh at 200 uM,"EC50 (inhibition of IL-2 secretion, dose-response) [µM]",Compound
B (B=50-74%),–,"CCCCSCC(=O)N1CCN(C(=O)[C@@H]2C[C@H]2c2ccccc2)CC1 (relative stereo) [Example 47, 2-(Butylthio)-1-(4-(trans-2-phenylcyclopropane-carbonyl)piperazin-1-yl)ethanone]"
D (D=0-24%),–,O=C(CSC1CCCC1)N1CCN(C(=O)[C@H]2C[C@@H]2c2ccc(O)cc2)CC1 [Example 30]
D (D=0-24%),–,O=C(O)CCNCC(=O)N1CCN(C(=O)[C@@H]2C[C@H]2c2ccccc2)CC1 [Example 111]
B (B=50-74%),–,O=C(CSC1CCCC1)N1CCN(C(=O)[C@H]2C[C@@H]2c2cccc(Cl)c2)CC1 [Example 32]
C (C=25-49%),–,"COCC(=O)N1CCN(C(=O)[C@@H]2C[C@H]2c2ccccc2)CC1 (relative stereo) [Example 42, [2-Methoxy-1-(4-(trans-2-phenylcyclopropane-1-carbonyl)piperazin-1-yl)ethan-1-one]]"
D (D=0-24%),–,O=C(O)CCCNCC(=O)N1CCN(C(=O)[C@@H]2C[C@H]2c2ccccc2)CC1 [Example 113]
B (B=50-74%),–,"O=C(COC1CCCCC1)N1CCN(C(=O)C2CC2c2ccccc2)CC1 (stereo not drawn) [Example 40, 2-(Cyclohexyloxy)-1-(4-((trans-2-phenylcyclopropanecarbonyl)-piperazin-1-yl)ethanone]"
B (B=50-74%),–,O=C(CSC1CCCC1)N1CCN(C(=O)[C@@H]2C[C@H]2c2ccccc2F)CC1 [Example 33]
B (B=50-74%),–,O=C(CSC1CCCC1)N1CCN(C(=O)[C@H]2C[C@@H]2c2ccccc2O)CC1 [Example 37]
B (B=50-74%),–,O=C(CSC1CCCC1)N1CCN(C(=O)[C@H]2C[C@@H]2c2cccc(O)c2)CC1 [Example 29]
C (C=25-49%),–,N#Cc1cccc([C@H]2C[C@@H]2C(=O)N2CCN(C(=O)CSC3CCCC3)CC2)c1 [Example 31]
C (C=25-49%),–,O=C(CS(=O)(=O)C1CCCC1)N1CCN(C(=O)[C@@H]2CC2c2ccccc2)CC1 (stereo partly shown) [Example 102]
C (C=25-49%),–,"CSCC(=O)N1CCN(C(=O)[C@@H]2C[C@H]2c2ccccc2)CC1 (relative stereo) [Example 43, [2-(Methylthio)-1-(4-(trans-2-phenylcyclopropane-1-carbonyl)piperazin-1-yl)ethan-1-one]]"
B (B=50-74%),–,COc1cccc([C@H]2C[C@@H]2C(=O)N2CCN(C(=O)CSC3CCCC3)CC2)c1 [Example 27]
B (B=50-74%),–,"O=C(CSC1CCCCC1)N1CCN(C(=O)[C@@H]2C[C@H]2c2ccccc2)CC1 [Example 41, 2-(Cyclohexylthio)-1-(4-((1R, 2R)-2-phenylcyclopropane-1-carbonyl)piperazin-1-yl) ethan-1-one]"
B (B=50-74%),–,O=C(COC1CCCC1)N1CCN(C(=O)[C@@H]2C[C@H]2c2ccccc2)CC1 [Example 64]
A (A=≥75%),–,O=C(CNC1CCCC1)N1CCN(C(=O)[C@H]2CC2c2ccccc2)CC1 (stereo partly shown) [Example 81]
B (B=50-74%),–,CN(CC(=O)N1CCN(C(=O)[C@H]2CC2c2ccccc2)CC1)C1CCCC1 (stereo partly shown) [Example 82]
